In the supplement of paper PMC10307832:

Tests used:
Experiment in all cases: relative viability (nuclei count vs DMSO), 5 days (fraction); higher = more cells survive
PC-14 = test system: PC-14
Outline: (§1)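 Lung cancer cell lines in 1536-well plates were dosed by pin tool the day after seeding, either with one drug alone or with a fixed anchor-drug dose plus five library-drug doses (not always all listed) in √10 steps. After 5 days, cells were fixed and their nuclei stained in one step (final 0.05% Triton X-100, 1% formaldehyde, 1 ug/ml Hoechst), then counted on 4× images. Relative viability is the nuclei count in treated wells divided by that in vehicle wells. Values are medians of duplicate plates.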

HCC-366 = test system: HCC-366
Outline: as §1

NCI-H2228 = test system: NCI-H2228
Outline: as §1

UMC-11 = test system: UMC-11
Outline: as §1

H3255 = test system: H3255
Outline: as §1

ABC-1 = test system: ABC-1
Outline: as §1

NCI-H2085 = test system: NCI-H2085
Outline: as §1

LCLC-103H = test system: LCLC-103H
Outline: as §1

COR-L23 = test system: COR-L23
Outline: as §1

NCI-H23 = test system: NCI-H23
Outline: as §1

NCI-H661 = test system: NCI-H661
Outline: as §1

NCI-H1666 = test system: NCI-H1666
Outline: as §1

NCI-H1975 = test system: NCI-H1975
Outline: as §1

LXF-289 = test system: LXF-289
Outline: as §1

NCI-H2009 = test system: NCI-H2009
Outline: as §1

SK-MES-1 = test system: SK-MES-1
Outline: as §1

HCC-15 = test system: HCC-15
Outline: as §1

NCI-H1437 = test system: NCI-H1437
Outline: as §1

HCC-827 = test system: HCC-827
Outline: as §1

NCI-H2342 = test system: NCI-H2342
Outline: as §1

PC-3 [JPC-3] = test system: PC-3 [JPC-3]
Outline: as §1

LC-2-ad = test system: LC-2-ad
Outline: as §1

NCI-H2087 = test system: NCI-H2087
Outline: as §1

Q: With `Cc1csc(=NC2CCCCC2)n1/N=C/c1ccc(O)c(O)c1O` [MIM1] + Cc1nc(Nc2ncc(C(=O)Nc3c(C)cccc3Cl)s2)cc(N2CCN(CCO)CC2)n1 [Dasatinib] (partner 0.075 µM) as the molecule, how does the relative viability (PC-14; first compound 0.2 µM) read?
A: 0.301

Q: And the relative viability (PC-14; first compound 0.6325 µM)?
A: 0.27

Q: What about the relative viability (PC-14; first compound 2 µM) of the same molecule?
A: 0.171

Q: And the relative viability (PC-14; first compound 6.325 µM)?
A: 0.233

Q: What about the relative viability (PC-14; first compound 20 µM) of the same molecule?
A: 0.0786

Q: What about the relative viability (HCC-366; first compound 0.2 µM) of the same molecule?
A: 0.622

Q: And the relative viability (HCC-366; first compound 2 µM)?
A: 0.65

Q: And the relative viability (HCC-366; first compound 6.325 µM)?
A: 0.388

Q: What about the relative viability (HCC-366; first compound 20 µM) of the same molecule?
A: 0.0615

Q: What about the relative viability (NCI-H2228; first compound 0.2 µM) of the same molecule?
A: 0.505

Q: What about the relative viability (NCI-H2228; first compound 0.6325 µM) of the same molecule?
A: 0.524

Q: What about the relative viability (NCI-H2228; first compound 2 µM) of the same molecule?
A: 0.66

Q: And the relative viability (NCI-H2228; first compound 6.325 µM)?
A: 0.205

Q: What about the relative viability (NCI-H2228; first compound 20 µM) of the same molecule?
A: 0.0988

Q: What about the relative viability (UMC-11; first compound 0.2 µM) of the same molecule?
A: 0.474

Q: What about the relative viability (UMC-11; first compound 2 µM) of the same molecule?
A: 0.532

Q: And the relative viability (UMC-11; first compound 6.325 µM)?
A: 0.402

Q: What about the relative viability (UMC-11; first compound 20 µM) of the same molecule?
A: 0.235

Q: And the relative viability (H3255; first compound 0.2 µM)?
A: 0.339

Q: And the relative viability (H3255; first compound 0.6325 µM)?
A: 0.343

Q: And the relative viability (H3255; first compound 2 µM)?
A: 0.334

Q: What about the relative viability (H3255; first compound 6.325 µM) of the same molecule?
A: 0.344

Q: And the relative viability (H3255; first compound 20 µM)?
A: 0.255

Q: What about the relative viability (ABC-1; first compound 0.2 µM) of the same molecule?
A: 0.598

Q: What about the relative viability (ABC-1; first compound 0.6325 µM) of the same molecule?
A: 0.555

Q: What about the relative viability (ABC-1; first compound 2 µM) of the same molecule?
A: 0.543

Q: And the relative viability (ABC-1; first compound 6.325 µM)?
A: 0.299

Q: And the relative viability (ABC-1; first compound 20 µM)?
A: 0.248

Q: What about the relative viability (NCI-H2085; first compound 0.2 µM) of the same molecule?
A: 0.323

Q: And the relative viability (NCI-H2085; first compound 0.6325 µM)?
A: 0.251

Q: What about the relative viability (NCI-H2085; first compound 2 µM) of the same molecule?
A: 0.261

Q: What about the relative viability (NCI-H2085; first compound 6.325 µM) of the same molecule?
A: 0.241

Q: And the relative viability (NCI-H2085; first compound 20 µM)?
A: 0.253

Q: What about the relative viability (LCLC-103H; first compound 0.2 µM) of the same molecule?
A: 0.422

Q: And the relative viability (LCLC-103H; first compound 0.6325 µM)?
A: 0.519

Q: What about the relative viability (LCLC-103H; first compound 2 µM) of the same molecule?
A: 0.512

Q: What about the relative viability (LCLC-103H; first compound 6.325 µM) of the same molecule?
A: 0.401

Q: And the relative viability (LCLC-103H; first compound 20 µM)?
A: 0.364

Q: And the relative viability (COR-L23; first compound 0.2 µM)?
A: 0.449

Q: What about the relative viability (COR-L23; first compound 0.6325 µM) of the same molecule?
A: 0.552

Q: And the relative viability (COR-L23; first compound 2 µM)?
A: 0.464

Q: And the relative viability (COR-L23; first compound 6.325 µM)?
A: 0.327

Q: And the relative viability (COR-L23; first compound 20 µM)?
A: 0.335

Q: What about the relative viability (NCI-H23; first compound 0.2 µM) of the same molecule?
A: 0.826

Q: And the relative viability (NCI-H23; first compound 2 µM)?
A: 0.684

Q: What about the relative viability (NCI-H23; first compound 6.325 µM) of the same molecule?
A: 0.471

Q: What about the relative viability (NCI-H23; first compound 20 µM) of the same molecule?
A: 0.246

Q: And the relative viability (NCI-H661; first compound 0.2 µM)?
A: 0.997

Q: What about the relative viability (NCI-H661; first compound 0.6325 µM) of the same molecule?
A: 0.866

Q: What about the relative viability (NCI-H661; first compound 2 µM) of the same molecule?
A: 0.87

Q: And the relative viability (NCI-H661; first compound 6.325 µM)?
A: 0.406

Q: And the relative viability (NCI-H661; first compound 20 µM)?
A: 0.224

Q: What about the relative viability (NCI-H1666; first compound 0.2 µM) of the same molecule?
A: 0.788

Q: What about the relative viability (NCI-H1666; first compound 0.6325 µM) of the same molecule?
A: 0.852

Q: And the relative viability (NCI-H1666; first compound 2 µM)?
A: 0.711

Q: And the relative viability (NCI-H1666; first compound 6.325 µM)?
A: 0.528

Q: What about the relative viability (NCI-H1666; first compound 20 µM) of the same molecule?
A: 0.41

Q: What about the relative viability (NCI-H1975; first compound 0.2 µM) of the same molecule?
A: 0.355

Q: And the relative viability (NCI-H1975; first compound 0.6325 µM)?
A: 0.377

Q: What about the relative viability (NCI-H1975; first compound 2 µM) of the same molecule?
A: 0.346

Q: What about the relative viability (NCI-H1975; first compound 6.325 µM) of the same molecule?
A: 0.185

Q: What about the relative viability (NCI-H1975; first compound 20 µM) of the same molecule?
A: 0.17

Q: What about the relative viability (LXF-289; first compound 0.2 µM) of the same molecule?
A: 0.224

Q: And the relative viability (LXF-289; first compound 0.6325 µM)?
A: 0.174

Q: What about the relative viability (LXF-289; first compound 2 µM) of the same molecule?
A: 0.194

Q: And the relative viability (LXF-289; first compound 6.325 µM)?
A: 0.275

Q: What about the relative viability (LXF-289; first compound 20 µM) of the same molecule?
A: 0.177

Q: And the relative viability (NCI-H2009; first compound 0.2 µM)?
A: 0.303

Q: And the relative viability (NCI-H2009; first compound 0.6325 µM)?
A: 0.327

Q: What about the relative viability (NCI-H2009; first compound 2 µM) of the same molecule?
A: 0.293

Q: What about the relative viability (NCI-H2009; first compound 6.325 µM) of the same molecule?
A: 0.204

Q: And the relative viability (NCI-H2009; first compound 20 µM)?
A: 0.123

Q: And the relative viability (SK-MES-1; first compound 0.2 µM)?
A: 0.369

Q: And the relative viability (SK-MES-1; first compound 0.6325 µM)?
A: 0.371

Q: What about the relative viability (SK-MES-1; first compound 2 µM) of the same molecule?
A: 0.259

Q: What about the relative viability (SK-MES-1; first compound 6.325 µM) of the same molecule?
A: 0.27

Q: And the relative viability (SK-MES-1; first compound 20 µM)?
A: 0.367

Q: And the relative viability (HCC-15; first compound 0.2 µM)?
A: 0.635

Q: And the relative viability (HCC-15; first compound 2 µM)?
A: 0.57

Q: And the relative viability (HCC-15; first compound 6.325 µM)?
A: 0.359

Q: What about the relative viability (HCC-15; first compound 20 µM) of the same molecule?
A: 0.101

Q: What about the relative viability (NCI-H1437; first compound 0.2 µM) of the same molecule?
A: 0.456

Q: What about the relative viability (NCI-H1437; first compound 0.6325 µM) of the same molecule?
A: 0.406

Q: What about the relative viability (NCI-H1437; first compound 2 µM) of the same molecule?
A: 0.55

Q: What about the relative viability (NCI-H1437; first compound 6.325 µM) of the same molecule?
A: 0.285

Q: And the relative viability (NCI-H1437; first compound 20 µM)?
A: 0.151

Q: And the relative viability (HCC-827; first compound 0.2 µM)?
A: 0.376

Q: What about the relative viability (HCC-827; first compound 0.6325 µM) of the same molecule?
A: 0.308

Q: What about the relative viability (HCC-827; first compound 2 µM) of the same molecule?
A: 0.259

Q: What about the relative viability (HCC-827; first compound 6.325 µM) of the same molecule?
A: 0.348

Q: What about the relative viability (HCC-827; first compound 20 µM) of the same molecule?
A: 0.488

Q: And the relative viability (NCI-H2342; first compound 0.2 µM)?
A: 0.319

Q: What about the relative viability (NCI-H2342; first compound 0.6325 µM) of the same molecule?
A: 0.316

Q: And the relative viability (NCI-H2342; first compound 2 µM)?
A: 0.331

Q: What about the relative viability (NCI-H2342; first compound 6.325 µM) of the same molecule?
A: 0.299

Q: What about the relative viability (NCI-H2342; first compound 20 µM) of the same molecule?
A: 0.418

Q: What about the relative viability (PC-3 [JPC-3]; first compound 0.2 µM) of the same molecule?
A: 1.03

Q: What about the relative viability (PC-3 [JPC-3]; first compound 0.6325 µM) of the same molecule?
A: 0.976

Q: What about the relative viability (PC-3 [JPC-3]; first compound 2 µM) of the same molecule?
A: 0.981

Q: And the relative viability (PC-3 [JPC-3]; first compound 6.325 µM)?
A: 0.904

Q: What about the relative viability (PC-3 [JPC-3]; first compound 20 µM) of the same molecule?
A: 0.582

Q: And the relative viability (LC-2-ad; first compound 0.2 µM)?
A: 0.834

Q: And the relative viability (LC-2-ad; first compound 0.6325 µM)?
A: 0.413

Q: What about the relative viability (LC-2-ad; first compound 2 µM) of the same molecule?
A: 0.527

Q: What about the relative viability (LC-2-ad; first compound 6.325 µM) of the same molecule?
A: 0.411

Q: And the relative viability (LC-2-ad; first compound 20 µM)?
A: 0.142

Q: And the relative viability (NCI-H2087; first compound 0.2 µM)?
A: 0.884

Q: And the relative viability (NCI-H2087; first compound 0.6325 µM)?
A: 0.843

Q: And the relative viability (NCI-H2087; first compound 2 µM)?
A: 1.02

Q: What about the relative viability (NCI-H2087; first compound 6.325 µM) of the same molecule?
A: 0.685

Q: And the relative viability (NCI-H2087; first compound 20 µM)?
A: 0.625
